Source: patent US8436031B2 (priority 2004, dated 2013)
pEC50: −log10 of the molar value.

Molecular target: MarA (Escherichia coli, UniProt P0ACH5)
Sequence (P0ACH5 whole entry, looked up): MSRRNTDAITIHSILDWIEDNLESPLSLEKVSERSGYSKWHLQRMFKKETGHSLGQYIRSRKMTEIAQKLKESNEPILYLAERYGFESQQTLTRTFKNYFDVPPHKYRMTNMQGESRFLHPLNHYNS
Assay: Selective marker (ccdB) under MarA-activated promoter; cell survival under MarA expression (Example 2)
Type: cell-based
Parameters: key: *: good inhibition of MarA; **: very good inhibition of MarA
Conditions: inhibition of MarA; cell survival under conditions of MarA expression
Text: In this example, the expression of a selective marker (e.g., ccdB) is put under the direct control of a promoter activated by MarA (e.g., inaA, galT, or micF). In the absence of MarA, the expression of the selective marker is silent and cells survive. Synthesis of MarA from an inducible plasmid in a bacterial or yeast cell leads to the activation of the inaA promoter, expression of ccdB, and subsequently results in cell death. Compounds that inhibit MarA are those that permit cell survival under conditions of MarA expression. In Table 4, * indicates good inhibition of MarA and ** indicates very good inhibition of MarA.
In the case of CCOC(=O)C1=C(C)N=c2s/c(=C\c3ccc(-c4cccc(C(=O)O)c4)o3)c(=O)n2C1c1c(OC)ccc2ccccc12 (centres unmarked) [N, 2-[5-(3-Carboxy-phenyl)-furan-2-ylmethylene]-5-(2-methoxy-naphthalen-1-yl)-7-methyl-3-oxo-2,3-dihydro-5H-thiazolo[3,2-a]pyrimidine-6-carboxylic acid ethyl ester], the “MarA inhibition score (cell survival)” value was “**”.
With O=C(O)COn1c(-c2ccccc2)nc2ccc([N+](=O)[O-])cc21 [AH, (6-Nitro-2-phenyl-benzoimidazol-1-yloxy)-acetic acid] the “MarA inhibition score (cell survival)” value was “**”.
In the case of CCCSc1nnc2c(n1)OC(c1ccc(-c3cccc([N+](=O)[O-])c3)o1)Nc1ccccc1-2 (centres unmarked) [L, 6-[5-(3-Nitro-phenyl)-furan-2-yl]-3-propylsulfanyl-6,7-dihydro-5-oxa-1,2,4,7-tetraaza-dibenzo[a,c]cycloheptene], the “MarA inhibition score (cell survival)” value was “**”.
In the case of CCSc1nnc2c(n1)OC(c1ccc(O)c(O)c1)Nc1ccccc1-2 (centres unmarked) [E, 4-(3-Ethylsulfanyl-6,7-dihydro-5-oxa-1,2,4,7-tetraaza-dibenzo[a,c]cyclo-hepten-6-yl)-benzene-1,2-diol], the “MarA inhibition score (cell survival)” value was “*”.

Molecular target: SoxS (Escherichia coli, UniProt P0A9E2)
Sequence (P0A9E2 whole entry): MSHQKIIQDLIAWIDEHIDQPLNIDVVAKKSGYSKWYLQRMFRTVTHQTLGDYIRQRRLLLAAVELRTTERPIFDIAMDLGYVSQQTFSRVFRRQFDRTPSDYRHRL
Assay: Chemiluminescence DNA binding assay, SoxS
Parameters: species or system E. coli
Conditions: relative to ARD
For O=C(NCc1ccc(-c2nc3ccc([N+](=O)[O-])cc3n2O)cc1)c1ccccc1 [ASS], the “EC50 for SoxS compared with ARD” value was “higher than that of ARD”.
With O=[N+]([O-])c1ccc2nc(-c3ccco3)n(O)c2c1 [AOX] the “EC50 for SoxS compared with ARD” value was “higher than that of ARD”.
With O=[N+](O)c1cccc2c1nc(-c1ccco1)n2O [AQV] the “EC50 for SoxS compared with ARD” value was “higher than that of ARD”.
With O=C(Nc1ccc(-c2nc3ccc([N+](=O)[O-])cc3n2O)cc1)c1ccc(Cl)cc1 [AST] the “EC50 for SoxS compared with ARD” value was “higher than that of ARD”.
For CN(C)c1ccc(-c2nc3ccc([N+](=O)[O-])cc3n2O)cc1 [ARB], the “EC50 for SoxS compared with ARD” value was “higher than that of ARD”.
For NC(=O)c1ccc2nc(-c3ccccc3)n(O)c2c1 [APJ], the “EC50 for SoxS compared with ARD” value was “higher than that of ARD”.
For O=C(Nc1ccc(-c2nc3ccc([N+](=O)[O-])cc3n2O)cc1)c1ccccc1 [AQQ], the “EC50 for SoxS compared with ARD” value was “higher than that of ARD”.
For COc1cccc(-c2nc3ccc([N+](=O)[O-])cc3n2O)c1 [ANU], the “EC50 for SoxS compared with ARD” value was “higher than that of ARD”.
In the case of O=[N+]([O-])c1ccc2nc(-c3ccoc3)n(O)c2c1 [AOW], the “EC50 for SoxS compared with ARD” value was “higher than that of ARD”.

Molecular target: LcrF (VirF) (Yersinia pseudotuberculosis, UniProt Q663J0)
Sequence (Q663J0 1-271): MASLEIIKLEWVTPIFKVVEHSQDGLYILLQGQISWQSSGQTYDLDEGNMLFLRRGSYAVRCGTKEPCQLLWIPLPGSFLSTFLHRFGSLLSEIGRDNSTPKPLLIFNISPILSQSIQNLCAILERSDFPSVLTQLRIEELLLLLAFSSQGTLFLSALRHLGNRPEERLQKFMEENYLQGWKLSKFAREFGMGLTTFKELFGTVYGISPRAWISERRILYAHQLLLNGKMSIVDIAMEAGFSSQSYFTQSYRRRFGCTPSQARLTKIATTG
Assay: biochemical
Type: binding, Y. pseudotuberculosis
Conditions: not given
O=C(/C=C/c1ccc(F)cc1)Nc1ccc(-c2nc3ccc([N+](=O)[O-])cc3n2O)cc1 [BBP] gave a pEC50 of 5.15.
O=C(/C=C/c1ccc(F)cc1F)Nc1ccc(-c2nc3ccc([N+](=O)[O-])cc3n2O)cc1 [BCO] showed a pEC50 of 5.66.
O=C(Nc1ccc(-c2nc3ccc([N+](=O)[O-])cc3n2O)cc1)c1cccc(F)c1 [BBS] showed a pEC50 of 4.54.
Compound Cc1cccc(C(=O)Nc2ccc(-c3nc4ccc([N+](=O)[O-])cc4n3O)cc2)c1 [BBT] has a pEC50 of 4.56.
For Cc1ccccc1C(=O)Nc1ccc(-c2nc3ccc([N+](=O)[O-])cc3n2O)cc1 [BBV], the pEC50 was < 4.24.
For O=C(Nc1ccc(-c2nc3ccc([N+](=O)[O-])cc3n2O)cc1)c1ccccc1F [BBW], the pEC50 was < 4.24.
For COc1ccc(/C=C/C(=O)Nc2ccc(-c3nc4ccc([N+](=O)[O-])cc4n3O)cc2)cc1 [BCL], the pEC50 was 5.29.
In the case of COc1ccc(C(=O)Nc2ccc(-c3nc4ccc([N+](=O)[O-])cc4n3O)cc2)cc1 [ASR], the pEC50 was 4.74.
In the case of Cc1ccc(/C=C/C(=O)Nc2ccc(-c3nc4ccc([N+](=O)[O-])cc4n3O)cc2)cc1 [BCK], the pEC50 was 6.10.

Test system: not listed separately
Assay: In vivo toxicity, repeat dose experiments
Conditions: mice; subcutaneous 25 mg/Kg, two doses on day 1, single dose on days 2-5
Experimental: The in vivo toxicity of Mar inhibitors ATB, BAB, BAF, BBP and BBS were investigated in repeat dose experiments. Mice were given two subcutaneous doses (25 mg/Kg) of a Mar inhibitor on day 1 and a single dose of the compound on days 2-5.
For O=C(/C=C/c1ccc(F)cc1)Nc1ccc(-c2nc3ccc([N+](=O)[O-])cc3n2O)cc1 [BBP], the in vivo toxicity was “No overt signs of toxicity”.
In the case of CC(=O)c1ccc(C(=O)Nc2ccc(-c3nc4ccc([N+](=O)[O-])cc4n3O)cc2)cc1 [BAF], the in vivo toxicity was “No overt signs of toxicity”.
In the case of O=C(Nc1ccc(-c2nc3ccc([N+](=O)[O-])cc3n2O)cc1)c1cccc(F)c1 [BBS], the in vivo toxicity was “No overt signs of toxicity”.
For N#Cc1ccc(C(=O)Nc2ccc(-c3nc4ccc([N+](=O)[O-])cc4n3O)cc2)cc1 [BAB], the in vivo toxicity was “No overt signs of toxicity”.
